Consider three molecules from ChEMBL document CHEMBL4477163, “Rubiaceae-Type Cyclopeptides from Galianthe thalictroides” (2016).

Converted amounts (≈) assume the structure as drawn.

What all share (format): functional
For one assay, the system named is HT-29. The assay can be described thus: Cytotoxicity against human HT-29 cells by sulforhodamine B assay.
In another assay the test system is 786-0. The assay can be described thus: Cytotoxicity against human 786-0 cells by sulforhodamine B assay.
Another assay relates to PC-3. The assay can be described thus: Cytotoxicity against human PC3 cells by sulforhodamine B assay. Background: Sulforhodamine B stains cellular protein and so reports cell mass.
Another assay relates to P388. Description: Cytotoxicity against mouse P388 cells at 1 mg/ml relative to control.

For `COc1ccc(C[C@H]2C(=O)N[C@@H](C)C(=O)N(C)[C@@H]3C(=O)N(C)[C@@H](Cc4ccc(OC)c(c4)Oc4ccc(cc4)[C@@H]3O)C(=O)N[C@H](C)C(=O)N[C@@H](C)C(=O)N2C)cc1`, the GI50 (as a rule, the concentration that inhibits growth by half) in the assay with HT-29 was 0.07 µg/mL (≈ 0.089 µM); in the assay on 786-0, 0.07 µg/mL (≈ 0.089 µM); in the assay with PC-3, 0.06 µg/mL (≈ 0.0763 µM). In the assay on P388, the T/C (as a rule, the ratio of treated to control) is 134%.
`COc1cccc2c1C(=O)c1c(O)c3c(c(O)c1C2=O)C[C@@](O)(C(=O)CO)C[C@@H]3O[C@H]1C[C@H](N)[C@H](O)[C@H](C)O1` [DOXORUBICIN]: the results for the GI50 in the assay with HT-29, with 786-0 and in the assay on PC-3 were 0.27 µg/mL (≈ 0.497 µM), 0.02 µg/mL (≈ 0.0368 µM) and 0.35 µg/mL (≈ 0.644 µM), respectively.
Consider `COc1ccc(C[C@H]2C(=O)N[C@@H](C)C(=O)N(C)[C@@H]3C(=O)N(C)[C@@H](Cc4ccc(OC)c(c4)Oc4ccc(cc4)[C@@H]3O)C(=O)N[C@H](C)C(=O)N[C@@H](CO)C(=O)N2C)cc1`, for which the GI50 in the assay on HT-29 was 1.8 µg/mL (≈ 2.24 µM); in the assay with 786-0 it was 1.14 µg/mL (≈ 1.42 µM); in the assay on PC-3, 0.26 µg/mL (≈ 0.324 µM).
